Measurements published in US6403343B2, “Method of producing a taxane-type diterpene and a method of obtaining cultured cells which produce the taxane-type dilterpene at a high rate” (Mitsui Chemicals, Inc., priority 1993, dated 2002).

Legend:
Type in all cases: cell-based
[1] = system: cultured cells of T. media; experiment: Taxane yield, T. media cultured cells with jasmonic acids added; details: 250 μM added on 14th day, 7 more days
Description: The procedure of Example 6 was carried out except that cultured cells of T. media were used.
The procedure of Example 13 was carried out except that cultured cells of T. media were used.
The procedure of Example 22 was carried out except that cultured cells of T. media were used.

[2] = system: cultured cells of Taxus baccata LINN, layer of 1.07 g/ml or less; experiment: Same culture using cells of the specific gravity layer of 1.07 g/ml or less (Ficoll), jasmonic acids added; details: 250 μM added on 14th day, 7 more days; cells of layer of 1.07 g/ml or less
Description: (§1) The cells with accelerated growth rate obtained by the method of Example 1 were fractionated firstly by a stainless steel mesh and cell clusters having the size of 250-840 μm were obtained. A medium having a specific gravity of 1.07 (g/ml) was produced by the use of Ficoll and the above-mentioned cells were layered over it and centrifuged at 700 rpm for 6 minutes. The cells were fractionated into two layers according to the difference of the specific gravity. The cells contained in the layer of 1.07 g/ml or less were fractionated and washed with 2% sucrose solution three times or more, to wash off Ficoll. After the washing, 1 g (fresh weight) of the cells was transferred to an Erlenmeyer flask containing 20 ml of liquid Woody Plant Medium and shake culture was carried out at 25° C. for 14 days. […] After completing the culture, the procedure of Example 1 was carried out.
as §1, with “growth rates” for “growth rate”, “Example 8” for “Example 1”, “was inoculated” for “was transferred”
as §1, with “Example 15” for “Example 1”, “was inoculated” for “was transferred”

[3] = system: cultured cells of Taxus brevifolia NUTT; experiment: Taxane yield, Taxus brevifolia cultured cells with jasmonic acids added; details: 250 μM added on 14th day, 7 more days
Description: After completing the culture, the procedure of Example 1 was carried out.
After completing the culture, the procedure of Example 8 was carried out.
After completing the culture, the procedure of Example 15 was carried out.

[4] = system: cultured cells of Taxus baccata LINN; experiment: Taxane-type diterpene yield and cell yield, shake culture of Taxus baccata cells with a jasmonic acid (or jasmone) added
[5] = system: cultured cells of Taxus baccata LINN; experiment: Taxane-type diterpenes in the culture medium after adding 100 μM methyl jasmonate (FIG. 1, FIG. 2); details: 7th day after the addition
Description: The analytical results of taxane-type diterpenes existed in the culture medium of Example 15 prior to the addition of 100 μM of methyl jasmonate, on the third day after the addition, and on the 7th day after the addition, are shown in FIG. 1 and FIG. 2 On the 7th day of the culture, about half of the taxol and about 70% of the baccatin III were leaked in the medium.
The procedure of Example 20 was carried out except that the methyl ester of jasmonic acid was not added.

[6] = 0.01 μM added on 14th day, 7 more days
[7] = 0.1 μM added on 14th day, 7 more days
[8] = 1 μM added on 14th day, 7 more days
[9] = 10 μM added on 14th day, 7 more days
[10] = 25 μM added 4 times every two days from 7th day, total 100 μM
[11] = 100 μM added on 7th day, 14 more days
[12] = 100 μM added on 14th day, 7 more days
[13] = 100 μM added on first day, 20 more days
[14] = 250 μM added on 14th day, 7 more days
[15] = 500 μM added on 14th day, 7 more days
[16] = 1000 μM added on 14th day, 7 more days
[17] = 50 μM added on 14th day, 7 more days

With CC/C=C\C[C@H]1[C@@H](CC(=O)OC)CC[C@@H]1O [methyl cucurbate] the cell yield [1] was 12.3 g/L, the “yield of baccatin III” value [1] was 5.2 mg/L and the yield of cephalomannine [1] was 0.2 mg/L. The yield of taxol [1] was 3.9 mg/L, the cell yield [2] was 9.7 g/L and the “yield of baccatin III” value [2] was 22.2 mg/L. The yield of cephalomannine [2] was 3.8 mg/L, the yield of taxol [2] was 29.7 mg/L and the cell yield [3] was 11.0 g/L. The “yield of baccatin III” value [3] was 1.2 mg/L, the yield of cephalomannine [3] was 0.3 mg/L and the yield of taxol [3] was 1.3 mg/L. For the same compound, the cell yield [4, 6] was 11.3 g/L, the “yield of baccatin III” value [4, 6] was 0.3 mg/L and the yield of cephalomannine [4, 6] was 2.6 mg/L. The yield of taxol [4, 6] was 4.3 mg/L, the cell yield [4, 7] was 11.1 g/L and the “yield of baccatin III” value [4, 7] was 0.3 mg/L. It also gave a yield of cephalomannine [4, 7] of 3.1 mg/L, a yield of taxol [4, 7] of 5.4 mg/L and a cell yield [4, 8] of 10.4 g/L. For the same compound, the “yield of baccatin III” value [4, 8] was 0.3 mg/L, the yield of cephalomannine [4, 8] was 3.3 mg/L and the yield of taxol [4, 8] was 6.7 mg/L. For the same compound, the cell yield [4, 9] was 10.4 g/L, the “yield of baccatin III” value [4, 9] was 0.5 mg/L and the yield of cephalomannine [4, 9] was 4.0 mg/L. The yield of taxol [4, 9] was 11.3 mg/L, the cell yield [4, 10] was 10.5 g/L and the “yield of baccatin III” value [4, 10] was 14.6 mg/L. For the same compound, the yield of cephalomannine [4, 10] was 4.1 mg/L, the yield of taxol [4, 10] was 18.2 mg/L and the cell yield [4, 11] was 9.5 g/L. The “yield of baccatin III” value [4, 11] was 8.4 mg/L, the yield of cephalomannine [4, 11] was 4.1 mg/L and the yield of taxol [4, 11] was 16.8 mg/L. The cell yield [4, 12] was 9.8 g/L, the “yield of baccatin III” value [4, 12] was 7.2 mg/L and the yield of cephalomannine [4, 12] was 4.4 mg/L. For the same compound, the yield of taxol [4, 12] was 15.7 mg/L, the cell yield [4, 13] was 6.1 g/L and the “yield of baccatin III” value [4, 13] was 0.8 mg/L. The yield of cephalomannine [4, 13] was 2.8 mg/L, the yield of taxol [4, 13] was 3.9 mg/L and the cell yield [4, 14] was 9.6 g/L. The “yield of baccatin III” value [4, 14] was 10.6 mg/L, the yield of cephalomannine [4, 14] was 5.3 mg/L and the yield of taxol [4, 14] was 17.7 mg/L. For the same compound, the cell yield [4, 15] was 9.3 g/L, the “yield of baccatin III” value [4, 15] was 12.0 mg/L and the yield of cephalomannine [4, 15] was 3.0 mg/L. The yield of taxol [4, 15] was 13.1 mg/L, the cell yield [4, 16] was 5.7 g/L and the “yield of baccatin III” value [4, 16] was 1.2 mg/L. It also gave a yield of cephalomannine [4, 16] of 2.8 mg/L and a yield of taxol [4, 16] of 4.2 mg/L.
COC(=O)C[C@H]1CCC(=O)[C@H]1C/C=C\CCO [methyl tuberonate] was tested, and the cell yield [1] was 9.5 g/L, the “yield of baccatin III” value [1] was 10.4 mg/L and the yield of cephalomannine [1] was 0.5 mg/L. For the same compound, the yield of taxol [1] was 5.4 mg/L, the cell yield [2] was 12.2 g/L and the “yield of baccatin III” value [2] was 17.4 mg/L. For the same compound, the yield of cephalomannine [2] was 3.1 mg/L, the yield of taxol [2] was 28.3 mg/L and the cell yield [3] was 10.0 g/L. For the same compound, the “yield of baccatin III” value [3] was 1.4 mg/L, the yield of cephalomannine [3] was 0.5 mg/L and the yield of taxol [3] was 3.3 mg/L. The cell yield [4, 6] was 14.3 g/L, the “yield of baccatin III” value [4, 6] was 0.4 mg/L and the yield of cephalomannine [4, 6] was 1.3 mg/L. For the same compound, the yield of taxol [4, 6] was 4.6 mg/L, the cell yield [4, 7] was 13.5 g/L and the “yield of baccatin III” value [4, 7] was 0.5 mg/L. For the same compound, the yield of cephalomannine [4, 7] was 1.5 mg/L, the yield of taxol [4, 7] was 5.5 mg/L and the cell yield [4, 8] was 13.2 g/L. For the same compound, the “yield of baccatin III” value [4, 8] was 0.7 mg/L, the yield of cephalomannine [4, 8] was 1.8 mg/L and the yield of taxol [4, 8] was 6.9 mg/L. The cell yield [4, 9] was 13.0 g/L, the “yield of baccatin III” value [4, 9] was 0.9 mg/L and the yield of cephalomannine [4, 9] was 2.2 mg/L. The yield of taxol [4, 9] was 14.8 mg/L, the cell yield [4, 10] was 12.9 g/L and the “yield of baccatin III” value [4, 10] was 13.5 mg/L. For the same compound, the yield of cephalomannine [4, 10] was 2.3 mg/L, the yield of taxol [4, 10] was 22.5 mg/L and the cell yield [4, 11] was 12.5 g/L. The “yield of baccatin III” value [4, 11] was 10.5 mg/L, the yield of cephalomannine [4, 11] was 2.1 mg/L and the yield of taxol [4, 11] was 15.6 mg/L. For the same compound, the cell yield [4, 12] was 12.7 g/L, the “yield of baccatin III” value [4, 12] was 12.2 mg/L and the yield of cephalomannine [4, 12] was 2.4 mg/L. The yield of taxol [4, 12] was 16.5 mg/L, the cell yield [4, 13] was 7.1 g/L and the “yield of baccatin III” value [4, 13] was 1.0 mg/L. The yield of cephalomannine [4, 13] was 1.3 mg/L, the yield of taxol [4, 13] was 4.0 mg/L and the cell yield [4, 14] was 12.5 g/L. The “yield of baccatin III” value [4, 14] was 14.5 mg/L, the yield of cephalomannine [4, 14] was 2.2 mg/L and the yield of taxol [4, 14] was 21.1 mg/L. For the same compound, the cell yield [4, 15] was 11.6 g/L, the “yield of baccatin III” value [4, 15] was 15.0 mg/L and the yield of cephalomannine [4, 15] was 2.3 mg/L. The yield of taxol [4, 15] was 10.6 mg/L, the cell yield [4, 16] was 7.5 g/L and the “yield of baccatin III” value [4, 16] was 1.2 mg/L. The yield of cephalomannine [4, 16] was 1.8 mg/L and the yield of taxol [4, 16] was 3.9 mg/L.
In the case of CC/C=C\CC1C(=O)CCC1CC(=O)OC (stereo not shown) [methyl jasmonate], the “baccatin III leaked in the medium” value [5] is reported as “about 70%”, the “taxol leaked in the medium” value [5] is reported as “about half” and the cell yield [2] is reported as 10.2 g/L. For the same compound, the “yield of baccatin III” value [2] was 18.7 mg/L, the yield of cephalomannine [2] was 3.2 mg/L and the yield of taxol [2] was 43.1 mg/L. For the same compound, the cell yield [4, 6] was 12.2 g/L, the “yield of baccatin III” value [4, 6] was 0.3 mg/L and the yield of cephalomannine [4, 6] was 1.6 mg/L. The yield of taxol [4, 6] was 3.2 mg/L, the cell yield [4, 7] was 12.1 g/L and the “yield of baccatin III” value [4, 7] was 0.3 mg/L. It also gave a yield of cephalomannine [4, 7] of 1.6 mg/L, a yield of taxol [4, 7] of 4.2 mg/L and a cell yield [4, 8] of 11.3 g/L. For the same compound, the “yield of baccatin III” value [4, 8] was 0.4 mg/L, the yield of cephalomannine [4, 8] was 1.8 mg/L and the yield of taxol [4, 8] was 4.9 mg/L. The cell yield [4, 9] was 11.3 g/L, the “yield of baccatin III” value [4, 9] was 0.7 mg/L and the yield of cephalomannine [4, 9] was 2.1 mg/L. The yield of taxol [4, 9] was 10.8 mg/L, the cell yield [4, 10] was 10.7 g/L and the “yield of baccatin III” value [4, 10] was 14.9 mg/L. For the same compound, the yield of cephalomannine [4, 10] was 2.2 mg/L, the yield of taxol [4, 10] was 16.7 mg/L and the cell yield [4, 17] was 10.9 g/L. For the same compound, the “yield of baccatin III” value [4, 17] was 3.1 mg/L, the yield of cephalomannine [4, 17] was 2.2 mg/L and the yield of taxol [4, 17] was 10.9 mg/L. The cell yield [4, 11] was 9.7 g/L, the “yield of baccatin III” value [4, 11] was 10.6 mg/L and the yield of cephalomannine [4, 11] was 2.1 mg/L. The yield of taxol [4, 11] was 14.2 mg/L, the cell yield [4, 12] was 9.8 g/L and the “yield of baccatin III” value [4, 12] was 9.2 mg/L. The yield of cephalomannine [4, 12] was 2.0 mg/L, the yield of taxol [4, 12] was 13.5 mg/L and the cell yield [4, 13] was 7.2 g/L. For the same compound, the “yield of baccatin III” value [4, 13] was 1.2 mg/L, the yield of cephalomannine [4, 13] was 1.7 mg/L and the yield of taxol [4, 13] was 4.5 mg/L. For the same compound, the cell yield [4, 14] was 10.0 g/L, the “yield of baccatin III” value [4, 14] was 12.9 mg/L and the yield of cephalomannine [4, 14] was 2.0 mg/L. The yield of taxol [4, 14] was 15.1 mg/L, the cell yield [4, 15] was 10.6 g/L and the “yield of baccatin III” value [4, 15] was 13.0 mg/L. The yield of cephalomannine [4, 15] was 1.9 mg/L, the yield of taxol [4, 15] was 12.6 mg/L and the cell yield [4, 16] was 5.9 g/L. The “yield of baccatin III” value [4, 16] was 1.2 mg/L, the yield of cephalomannine [4, 16] was 1.8 mg/L and the yield of taxol [4, 16] was 3.1 mg/L.
